Test results reported in patent US20180303874A1, “Compositions and Methods for the Prevention of Microbial Infections” (LANKENAU INSTITUTE FOR MEDICAL RESEARCH, priority 2011, published 2018).

How the values were obtained:
HSV = conditions: co-incubated; cited from earlier work
Caco-2 cell sheets = assay: Transepithelial electrophysiology of Caco-2 cell sheets; type: cell-based, human; conditions: vs control
Experimental: Cells were seeded at the density of 5×10^5 onto sterile Millipore Millicell polycarbonate (PCF) permeable supports (pore size 0.4 μm with a diameter of 30 mm) on Day 0. Cells were allowed to grow for 21-24 days prior to experiments (Hubatsch et al. (2007) Nat. Protoc., 2:2111-9). Three or four Millicell PCF units (2 ml/unit) were placed in a 100 mm sterile petri dish (15 ml/dish). Cells were fed bilaterally 3 times per week with control medium until at least Day 14 and switched to different zinc-supplemented media (Ctrl, 50 or 100 μM elemental zinc) for another week. […]
On the day of experiment, cells were re-fed in fresh culture medium and allowed to incubate at 37° C. for 2 hr prior to the actual experiment. Transepithelial voltage and transepithelial electrical resistance were measured as previously described (Skrovanek et al. (2007) Am. J. Physiol. Regul. Integr. Comp. Physiol., 293:R1046-55). In brief, using silver/silver chloride electrodes in series with 1M NaCl agar bridges, a 40 microamp externally applied current pulse was delivered across the cell layer and the resultant change in the voltage across the cell layer was measured using calomel electrodes in series with 1M NaCl/agar bridges and a Keithley® 197A auto-ranging digital multimeter. […]

claudin-7 = assay: Western blot analysis of tight junctional protein claudin-7 in Caco-2 cells; type: cell-based, human; conditions: 50 or 100 μM zinc, one week, vs control
Experimental: (§1) Human gastrointestinal epithelial cells were allowed to grow to maximal density and re-fed with culture media at different zinc concentrations for pre-determined time points (0, 3, 6, 24 or 48 hours, or 7 days). Flasks were washed two times each with ice cold saline, then flash-frozen in an ethanol-dry ice bath, and stored at −80° C. until fractionation. At that time, flasks were quick-thawed and 2 ml of 4° C. Buffer A (20 mM Tris-HCl, pH 7.5, 0.25 M sucrose, 10 mM EGTA, 2 mM EDTA) with protease and phosphatase inhibitors (final concentrations: 0.8 μM aprotinin, 20 μM leupeptin, 50 μM bestatin, 1 mM AEBSF, 10 μM pepstatin) (Calbiochem) was added to each, cells were scraped into the buffer, the suspension mechanically disrupted and then sonicated for 60 seconds on ice and transferred to an ultracentrifuge tube. Tubes were centrifuged in a chilled Beckman 50TI rotor at 39,000 rpm for one hour at 4° C. […] The supernatant from this final spin was the “membrane fraction.” Total protein was measured using the BioRad DC™ Protein Assay Kit.
(§2) Samples of these fractions were analyzed by polyacrylamide gel electrophoresis using a Novex XCell SureLock™ Mini-Cell apparatus and a 4-20% gradient Novex Tris-Glycine, pre-cast, 10-well, 1.5 mm thick gel (Invitrogen). […]
(§3) Films were analyzed for protein expression level by measuring optical density units with a Personal Densitometer™ SI (Molecular Dynamics).

claudin-2 = assay: Western blot analysis of tight junctional protein claudin-2 in Caco-2 cells; type: cell-based, human; conditions: 50 or 100 μM zinc, one week, vs control
Experimental: as §1, §2, §3

Row | Molecule | inactivation of HSV (HSV) | other results
1 | CC(=O)[O-].CC(=O)[O-].[Zn+2] [zinc acetate] | directly inactivate | –
2 | O=S(=O)([O-])[O-].[Zn+2] [zinc sulfate] | directly inactivate | –
3 | [Zn] [zinc] | – | short circuit current (Caco-2 cell sheets; 50 or 100 μM zinc, one week): comparable short circuit currents; transepithelial electrical resistance (Caco-2 cell sheets; one-week zinc supplementation (50 or 100 μM)): significant increase; expression of claudin-7 (claudin-7): reduction, albeit to a lesser extent than claudin-2; expression of claudin-2 (claudin-2): significantly reduced
4 | CC(O)C(=O)[O-].CC(O)C(=O)[O-].[Zn+2] (centres unmarked) [zinc lactate] | directly inactivate | –
5 | zinc gluconate | directly inactivate | –
